US11304929B2, “Tosylacetate based compounds and derivatives thereof as PHGDH inhibitors” (priority 2017, dated 2022)
Read-outs that look alike come from different tables or passages of the source.

Legend:
MDA-MB-468 = assay: 13C3 Serine Assay MDA-MB-468 (13C3 serine levels by LC/MS/MS); assay type: cell-based; details: Homo sapiens
PHGDH = PHGDH (Homo sapiens (Human), UniProt O43175); assay: 3-Phosphoglycerate Dehydrogenase (PHGDH) Fluorescence Intensity Assay, run at two NAD/3-PG ratios: PHGDH_HIGH_NAD/3-PG (250 μM NAD/500 μM 3-PG) and PHGDH_500_NAD/3-PG (500 μM NAD/500 μM 3-PG); assay type: biochemical
[1] = MDA-MB-468 cells, 13C3 serine levels by LC/MS/MS, read-out: IC50 (13CSERINE)
[2] = 250 μM NAD/500 μM 3-PG, read-out: IC50 (PHGDH_HIGH_NAD/3-PG)
[3] = MDA-MB-468, read-out: IC50 (13CSERINE)
[4] = 500 μM NAD/500 μM 3-PG, read-out: IC50 (PHGDH_500_NAD/3-PG)

Sequence of PHGDH (O43175 2-533 limits assumed): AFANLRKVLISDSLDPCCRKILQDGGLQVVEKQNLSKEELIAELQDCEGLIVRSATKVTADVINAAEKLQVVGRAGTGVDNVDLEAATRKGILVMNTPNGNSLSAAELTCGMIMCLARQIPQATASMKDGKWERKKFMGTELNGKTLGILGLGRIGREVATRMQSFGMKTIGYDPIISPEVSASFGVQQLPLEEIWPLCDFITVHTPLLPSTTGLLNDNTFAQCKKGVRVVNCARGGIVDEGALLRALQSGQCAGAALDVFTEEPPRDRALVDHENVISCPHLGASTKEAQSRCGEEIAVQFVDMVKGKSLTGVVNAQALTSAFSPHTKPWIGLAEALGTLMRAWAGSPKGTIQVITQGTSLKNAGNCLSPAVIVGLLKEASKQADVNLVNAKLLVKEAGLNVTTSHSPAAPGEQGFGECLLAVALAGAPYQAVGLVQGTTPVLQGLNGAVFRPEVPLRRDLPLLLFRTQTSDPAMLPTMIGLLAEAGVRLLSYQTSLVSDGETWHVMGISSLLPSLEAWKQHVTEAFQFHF

SMILES	IC50 (MDA-MB-468; [1])	IC50 (PHGDH; [2])	IC50 (MDA-MB-468; [3])	IC50 (PHGDH; [4])
COC(=O)CS(=O)(=O)c1ccc([C@@H](C)NC(=O)c2cc3c(Cl)c(Cl)c(C)nc3n2C)cc1 [Example 01-006, methyl 2-{4-[(1R)-1-({4,5-dichloro-1,6-dimethyl-1H-pyrrolo[2,3-b]pyridin-2-yl}formamido)ethyl]benzenesulfonyl}acetate]	88.8 nM	485 nM	–	–
COC(=O)CS(=O)(=O)c1ccc([C@@H](CO)NC(=O)c2cc3c(Cl)c(Cl)c(C)cc3n2C)cc1 [Example 01-007, methyl 2-{4-[(1S)-1-[(4,5-dichloro-1,6-dimethyl-1H-indol-2-yl)formamido]-2-hydroxyethyl]benzenesulfonyl}acetate]	5 nM	121 nM	–	–
CCOC(=O)CS(=O)(=O)c1ccc([C@@H](C)NC(=O)c2cc3c(Cl)cc(-c4cnn(C)c4)cc3n2C)cc1 [Example 01-009, ethyl 2-{4-[(1R)-1-{[4-chloro-1-methyl-6-(1-methyl-1H-pyrazol-4-yl)-1H-indol-2-yl]formamido}ethyl]benzenesulfonyl}acetate]	44.1 nM	815 nM	–	–
CC(C)OC(=O)CS(=O)(=O)c1ccc([C@@H](C)NC(=O)c2cc3c(Cl)cc(-c4cnn(C)c4)cc3n2C)cc1 [Example 01-011, propan-2-yl 2-{4-[(1R)-1-{[4-chloro-1-methyl-6-(1-methyl-1H-pyrazol-4-yl)-1H-indol-2-yl]formamido}ethyl]benzenesulfonyl}acetate]	489 nM	1930 nM	–	–
COC(=O)CS(=O)(=O)c1ccc([C@@H](C)NC(=O)c2cc3c(Cl)cc(C)cc3n2C)cc1 [Example 01-012, methyl 2-{4-[(1R)-1-[(4-chloro-1,6-dimethyl-1H-indol-2-yl)formamido]ethyl]benzenesulfonyl}acetate]	52.5 nM	412 nM	–	–
COC(=O)CS(=O)(=O)c1ccc([C@@H](CO)NC(=O)c2cc3c(Cl)cc(C)cc3n2C)cc1 [Example 01-013, methyl 2-{4-[(1S)-1-[(4-chloro-1,6-dimethyl-1H-indol-2-yl)formamido]-2-hydroxyethyl]benzenesulfonyl}acetate]	–	87 nM	8.3 nM	–
CCOC(=O)CS(=O)(=O)c1ccc([C@@H](C)NC(=O)c2cc3c(Cl)c(Cl)c(C)nc3n2C)cc1 [Example 01-016, ethyl 2-{4-[(1R)-1-({4,5-dichloro-1,6-dimethyl-1H-pyrrolo[2,3-b]pyridin-2-yl}formamido)ethyl]benzenesulfonyl}acetate]	72.1 nM	1090 nM	–	–
Cc1cc2c(cc(C(=O)N[C@H](CO)c3ccc(S(=O)(=O)CC(=O)OC(C)C)cc3)n2C)c(Cl)c1Cl [Example 01-021, propan-2-yl 2-{4-[(1S)-1-[(4,5-dichloro-1,6-dimethyl-1H-indol-2-yl)formamido]-2-hydroxyethyl]benzenesulfonyl}acetate]	12.6 nM	463 nM	–	–
COC(=O)CS(=O)(=O)c1ccc([C@@H](CO)NC(=O)c2cc3c(Cl)c(Cl)c(C)nc3n2C)cc1 [Example 01-023, methyl 2-{4-[(1S)-1-({4,5-dichloro-1,6-dimethyl-1H-pyrrolo[2,3-b]pyridin-2-yl}formamido)-2-hydroxyethyl]benzenesulfonyl}acetate]	0.8 nM	216 nM	–	–
CC(C)OC(=O)CS(=O)(=O)c1ccc([C@@H](C)NC(=O)c2cc3cc(Cl)c(-c4cnn(CCN5CCOCC5)c4)cc3n2C)cc1 [Example 01-026, propan-2-yl 2-{4-[(1R)-1-[(5-chloro-1-methyl-6-{1-[2-(morpholin-4-yl)ethyl]-1H-pyrazol-4-yl}-1H-indol-2-yl)formamido]ethyl]benzenesulfonyl}acetate]	35.9 nM	1350 nM	–	–
COC(=O)CS(=O)(=O)c1ccc([C@@H](C)NC(=O)c2cc3cc(Cl)c(-c4cnn(CCN5CCOCC5)c4)cc3n2C)cc1 [Example 01-027, methyl 2-{4-[(1R)-1-[(5-chloro-1-methyl-6-{1-[2-(morpholin-4-yl)ethyl]-1H-pyrazol-4-yl}-1H-indol-2-yl)formamido]ethyl]benzenesulfonyl}acetate]	34.2 nM	248 nM	–	–
CCOC(=O)CS(=O)(=O)c1ccc([C@@H](CO)NC(=O)c2cc3c(F)c(F)c(C)cc3n2C)cc1 [Example 01-028, ethyl 2-{4-[(1S)-1-[(4,5-difluoro-1,6-dimethyl-1H-indol-2-yl)formamido]-2-hydroxyethyl]benzenesulfonyl}acetate]	7.3 nM	267 nM	–	525 nM
COC(=O)CS(=O)(=O)c1ccc([C@@H](C)NC(=O)c2cc(-c3ccc(F)cc3)nn2C)cc1 [Example 02-001, methyl 2-{4-[(1R)-1-{[3-(4-fluorophenyl)-1-methyl-1H-pyrazol-5-yl]formamido}ethyl]benzenesulfonyl}acetate]	32.8 nM	1260 nM	–	–
CCOC(=O)CS(=O)(=O)c1ccc([C@@H](C)NC(=O)c2cc(-c3ccc(F)cc3)nn2C)cc1 [Example 02-004, ethyl 2-{4-[(1R)-1-{[3-(4-fluorophenyl)-1-methyl-1H-pyrazol-5-yl]formamido}ethyl]benzenesulfonyl}acetate]	62.1 nM	3100 nM	–	–
CCOC(=O)CS(=O)(=O)c1ccc([C@@H](C)NC(=O)c2cc(-c3cccc4cc[nH]c34)nn2C)cc1 [Example 02-005, ethyl 2-{4-[(1R)-1-{[3-(1H-indol-7-yl)-1-methyl-1H-pyrazol-5-yl]formamido}ethyl]benzenesulfonyl}acetate]	64.8 nM	3000 nM	–	–
COC(=O)CS(=O)(=O)c1ccc([C@@H](CO)NC(=O)c2cc(-c3ccccc3)nn2C)cc1 [Example 02-007, methyl 2-{4-[(1S)-2-hydroxy-1-[(1-methyl-3-phenyl-1H-pyrazol-5-yl)formamido]ethyl]benzenesulfonyl}acetate]	167 nM	4340 nM	–	–
CC(C)OC(=O)CS(=O)(=O)c1ccc([C@@H](C)NC(=O)c2cc(-c3ccc(F)cc3)nn2C)cc1 [Example 02-008, propan-2-yl 2-{4-[(1R)-1-{[3-(4-fluorophenyl)-1-methyl-1H-pyrazol-5-yl]formamido}ethyl]benzenesulfonyl}acetate]	68.4 nM	4840 nM	–	–
COC(=O)CS(=O)(=O)c1ccc([C@@H](C)NC(=O)c2cc(-c3ccccc3)nn2C)cn1 [Example 02-010, methyl 2-({5-[(1R)-1-[(1-methyl-3-phenyl-1H-pyrazol-5-yl)formamido]ethyl]pyridin-2-yl}sulfonyl)acetate]	594 nM	3690 nM	–	–
CC(C)OC(=O)CS(=O)(=O)c1ccc([C@@H](C)NC(=O)c2cc(-c3ccccc3)nn2C)cc1 [Example 02-011, propan-2-yl 2-{4-[(1R)-1-[(1-methyl-3-phenyl-1H-pyrazol-5-yl)formamido]ethyl]benzenesulfonyl}acetate]	135 nM	6720 nM	–	–
Cc1cc(Cl)c2cc(C(=O)N[C@H](CO)c3ccc(S(=O)(=O)CC(=O)O)cc3)n(C)c2c1 [Example 03-002, 2-{4-[(1S)-1-[(4-chloro-1,6-dimethyl-1H-indol-2-yl)formamido]-2-hydroxyethyl]benzenesulfonyl}acetic acid]	–	6 nM	1380 nM	–
Cc1cc2c(cc(C(=O)N[C@H](C)c3ccc(S(=O)(=O)CC(=O)O)cc3)n2C)c(Cl)c1Cl [Example 03-005, 2-{4-[(1R)-1-[(4,5-dichloro-1,6-dimethyl-1H-indol-2-yl)formamido]ethyl]benzenesulfonyl}acetic acid]	–	4 nM	1070 nM	9 nM
Cc1cc2c(cc(C(=O)N[C@H](CO)c3ccc(S(=O)(=O)CC(=O)O)cc3)n2C)c(Cl)c1Cl [Example 03-006, 2-{4-[(1S)-1-[(4,5-dichloro-1,6-dimethyl-1H-indol-2-yl)formamido]-2-hydroxyethyl]benzenesulfonyl}acetic acid]	–	3 nM	203 nM	4 nM
Cc1cc(Cl)c2cc(C(=O)N[C@H](C)c3ccc(S(=O)(=O)CC(=O)O)cc3)n(C)c2c1 [Example 03-009, 2-{4-[(1R)-1-[(4-chloro-1,6-dimethyl-1H-indol-2-yl)formamido]ethyl]benzenesulfonyl}acetic acid]	–	8 nM	3570 nM	–
Cc1nc2c(cc(C(=O)N[C@H](CO)c3ccc(S(=O)(=O)CC(=O)O)cc3)n2C)c(Cl)c1Cl [Example 03-011, 2-{4-[(1S)-1-({4,5-dichloro-1,6-dimethyl-1H-pyrrolo[2,3-b]pyridin-2-yl}formamido)-2-hydroxyethyl]benzenesulfonyl}acetic acid]	2000 nM	9 nM	–	–
Cc1cc(Cl)c2cc(C(=O)N[C@H](C)c3ccc(S(=O)(=O)C(C)C(=O)OC(C)(C)C)cc3)n(C)c2c1 (stereo partly drawn) [Example 05-001, tert-butyl 2-{4-[(1R)-1-[(4-chloro-1,6-dimethyl-1H-indol-2-yl)formamido]ethyl]benzenesulfonyl}propanoate]	891 nM	24400 nM	–	–
CCOC(=O)C(C)(C)S(=O)(=O)c1ccc([C@@H](C)NC(=O)c2cc3c(Cl)cc(C)cc3n2C)cc1 [Example 05-003, ethyl 2-{4-[(1R)-1-[(4-chloro-1,6-dimethyl-1H-indol-2-yl)formamido]ethyl]benzenesulfonyl}-2-methylpropanoate]	30.2 nM	15900 nM	–	–
Cc1cc(Cl)c2cc(C(=O)N[C@H](C)c3ccc(S(=O)(=O)C(C)C(=O)OC(C)C)cc3)n(C)c2c1 (stereo partly drawn) [Example 05-004, propan-2-yl 2-{4-[(1R)-1-[(4-chloro-1,6-dimethyl-1H-indol-2-yl)formamido]ethyl]benzenesulfonyl}propanoate]	10.1 nM	11800 nM	–	–
COCCC(C(=O)OC)S(=O)(=O)c1ccc([C@@H](C)NC(=O)c2cc3c(Cl)cc(C)cc3n2C)cc1 (stereo partly drawn) [Example 05-005, methyl 2-{4-[(1R)-1-[(4-chloro-1,6-dimethyl-1H-indol-2-yl)formamido]ethyl]benzenesulfonyl}-4-methoxybutanoate]	831 nM	652 nM	–	–
